Results reported in patent US8828976B2, “Identification and use of compounds that affect the fidelity of eukaryotic translation initiation codon selection” (priority 2010, dated 2014).
Counter-ions that a name gives are not always drawn. Like-named read-outs stand apart in the source and are kept apart here.

Legend:
[1] = system: AUG start codon of Fluc mRNA; test: Dual luciferase counter-screen (FlucAUG/RlucAUG), BY4741 with pFaugRaug; format: cell-based, Saccharomyces cerevisiae; settings: for FlucAUG/RlucAUG ratio in the presence of compound: BY4741, screening conditions
Procedure: The compounds were then tested in secondary assays.
The dual luciferase assay was carried out as in Kolitz et al. (RNA, vol. 15, no. 1, pp. 138-152, 2009), with the following modifications to screening conditions: An over-night culture of wild type yeast (BY4741 transformed with pFuugRaug) were diluted to an OD600 of approximately 0.2 in SC-Ura, and 50 μL were aliquoted to each well of a 96 well plate. BY4741 expressing the RaugFaug plasmid was included in the 1st and last column as an additional control. Compounds to be tested were supplied from the NCI DTP library in 96 well format at 1 mM in DMSO. DMSO was included in all control wells. 1.5 μL of compound (or DMSO) was added to each well of the yeast plate, followed by incubation at 30° C. for 4 hours while shaking. To measure luciferase activity, 1 μL of culture was added directly to 50 μL of 1× Passive Lysis Buffer (Promega), incubated 40-60 minutes at room temperature, then luciferase activity measured using a Turner Modulus Microplate Reader (Kolitz et al., RNA, vol. 15, no. 1, pp. 138-152, 2009). The same protocol was used when testing the other libraries, with the appropriate solvent controls. The Fuug/Raug ratio of each sample with drug was compared to the average Fuug/Raug ratio of the solvent only controls on the same plate.
Changes in the Fluc(UUG)/Rluc(AUG) ratio could be caused by a compound altering the use of UUG as a start codon (the desired target) or a variety of other effects such as changes in transcription of one gene, changes in mRNA or protein half-life, or inhibition or activation of one of the luciferase enzymes. […] Compounds that specifically increase use of near-cognate codons as start sites will not produce an effect in this Fluc(AUG)/Rluc(AUG) assay, whereas compounds that alter other process will not be specific for the Fluc(UUG)/Rluc(AUG) system and will still produce effects with the Fluc(AUG)/Rluc(AUG) reporter. Compounds that are not specific for effects on Fluc(UUG) expression will not be pursued further.

[2] = system: UUG start codon of Fluc mRNA (fidelity of start codon selection); test: Dual luciferase assay, primary screen (FlucUUG/RlucAUG), BY4741 with pFuugRaug; format: cell-based, Saccharomyces cerevisiae; settings: for raw FlucUUG value: at concentrations that decrease the other luciferase values
From the text: In the assay, Renilla luciferase (Rluc) and firefly luciferase (Fluc) genes are expressed from a single plasmid, each under the control of a separate constitutive promoter and terminator, allowing transcription of the two genes as separate mRNAs. The Fluc mRNA has a non-AUG start codon (FIG. 2A). […] UUG was chosen as the near cognate start site in the screen, allowing easy identification of compounds that either increase expression (chemically reproducing a Sui^− phenotype, decreasing fidelity) or decrease expression (enhancing fidelity) of UUG relative to AUG in the dual luciferase assay.
BY4741 expressing the RaugFaug plasmid was included in the 1st and last column as an additional control. Compounds to be tested were supplied from the NCI DTP library in 96 well format at 1 mM in DMSO. DMSO was included in all control wells. 1.5 μL of compound (or DMSO) was added to each well of the yeast plate, followed by incubation at 30° C. for 4 hours while shaking. […] The same protocol was used when testing the other libraries, with the appropriate solvent controls. The Fuug/Raug ratio of each sample with drug was compared to the average Fuug/Raug ratio of the solvent only controls on the same plate.
Every row contains DMSO-only controls for each strain. For each compound-treated sample, the ratio of [Fluc(UUG)/Rluc(AUG)]/[Fluc(AUG)/Rluc(AUG)] is calculated using the DMSO-only Fluc(AUG)/Rluc(AUG) control from that row (there is one for each row in a plate). This ratio is the Fluc(UUG)/Fluc(AUG) ratio normalized to Rluc(AUG) activity in each sample. […] Potential changes include pipetting inaccuracies, differences in lysis efficiencies or global effects on gene expression due to differences in cell densities during growth. The internal Rluc control also helps screen out compounds that affect gene expression or cell growth globally rather than having specific effects on translation from non-AUG codons.
When a hit was identified, rescreening and counter screening assays were done using 300 μM to 10 nM of the compound, i.e., the identified “hit,” to measure concentration dependence.

[3] = system: Sui- strain sui1-1 (eIF1 D83G); test: Growth assay of Sui- strain sui1-1 (his4-303) on SC-His / SC plates with compound-soaked paper strips; settings: for growth of sui1-1 close to the compound source: paper strip with 10 mM NSC92218 or 50 mM NSC218351, FIG. 18 column 1 and 5
From the text: Compound or solvent soaked paper strips were placed on agar plates. Yeast were spotted onto the plate as 4 rows increasingly distant from the paper strip and grown for 4 days on SC-His and 2 days on SC.
An additional reporter assay utilizes a yeast strain in which the AUG start codon of the HIS4 gene has been changed to AUU (his4-303) (Huang et al., Genes Dev., vol. 11, pp. 2396-2413, 1997). This strain is a histidine auxotroph and cannot grow on medium lacking histidine. However, Sui^− mutations allow initiation from the AUU start site or, more commonly, a UUG three codons downstream from it, restoring expression of His4p and thus growth on His^− medium (Castilho-Valavicius et al., Genetics, vol. 124, pp. 483-495, 1990; Huang et al., Genes Dev., vol. 11, pp. 2396-2413, 1997; Yoon et al., Mol. Cell. Biol., vol. 12, pp. 248-260, 1992). Observing an alteration of the Sui^− phenotype is a more sensitive assay than rescuing growth of a wild type strain. […] Likewise, if the compound increases the fidelity of initiation, then growth should be compromised.
Yeast with the his4-303 allele from an over-night culture were washed with water and diluted to an OD600 between 0.1-1. Strips of sterile Whatman paper were soaked with compound or solvent and placed on an agar plate of the appropriate media. The yeast culture was spotted onto the plate at various distances from the paper strips. The plates were incubated at 30° C. Diffusion creates a gradient of compound, which tends to enhance growth only in a certain range because of off-setting toxicity at high concentrations.
Chemically increasing use of near-cognate codons as start codons mimics the Sui^− phenotype. Sui^− mutations were originally identified in a screen that requires translation initiation at a non-AUG start codon in a mutant of the HIS4 gene (his4-303 allele) for growth on SC-His media (Donahue et al., Mol. Cell. Biol., vol. 8, no. 7, pp. 2955-2963, 1988). Compounds that increase the use of non-AUG start codons to a small degree should further increase growth of Sui^− strains with the his4-303 allele on SC-His media, chemically enhancing the Sui^− phenotype. To test this, a paper strip saturated with compound was placed onto a plate of media (SC or SC-His). Yeast with the his4-303 allele was spotted on the plate at various distances from the compound- or solvent-containing strips.

[4] = system: UUG start codon of PRE2 uORF; test: uORF luciferase assay (PRE2 uORF with UUG start codon fused to firefly luciferase); format: cell-based, Saccharomyces cerevisiae; settings: wild type yeast, normalized to DMSO alone
Procedure: BY4741 was transformed with pNTI33 or pNTI32. Transformants were incubated with compound and luciferase activity measured as described for the dual luciferase assay. The solvent-only firefly luciferase activity was used for normalization.
To further validate the effects of compounds that pass the primary and counterscreens, an additional reporter assay was performed. The assay uses a 5′-upstream open reading frame (uORF) that begins with a UUG codon and was shown in yeast to be translated, especially under amino acid starvation conditions (Castilho-Valavicius et al., Genetics, vol. 124, pp. 483-495, 1990). This uORF was fused both in-frame and out-of-frame to the firefly luciferase gene and the effect of the compounds on initiation on this physiologically relevant near-cognate start codon assessed.
This construct was used to assess the effect of the compounds on translation mediated by the non-AUG start codon of the uORFs. The PRE2 uORF has an UUG start codon, with the consensus sequence (−3)AAA(−1) directly upstream of UUG (FIG. 15). In the control reporter, the luciferase coding region is out-of-frame from the start codon of the uORF.

[5] = system: FlucUUG/RlucAUG ratio in hc eIF1 strain; test: Dual luciferase assay in strain over-expressing eIF1 (H3984, hc eIF1); format: cell-based, Saccharomyces cerevisiae; settings: hc eIF1 vs BY4741; for suppression of the compound's effect on UUG initiation by over-expression of eIF1: 60 μM NSC218351, 3.8 μM NSC92218
Procedure: H3984 data are an average of 2 independent experiments. Error bars represent average deviation. The concentration of NSC218351 was 60 μM, and NSC92218 was 3.8 μM. Haplo-insufficiency results are averages of data from 2 separate transformants. The concentration of NSC218351 was 33 μM, and NSC92218 was 7 μM. FlucAUG/RlucAUG expression ratio with DMSO alone was used to normalize the Fluc/Rluc ratio for both FlucAUG and FlucUUG for each strain (normalized FlucAUG/RlucAUG with DMSO alone is 1 for each strain).
Data, from 2 independent experiments, were analyzed.

[6] = system: yeast cells; test: Growth / toxicity to wild type yeast
[7] = system: near-cognate start codons; test: Dual luciferase assay with Fluc reporters with different near-cognate start codons; format: cell-based, Saccharomyces cerevisiae; settings: Fluc reporter with AUU start codon
Procedure: AAG and AGG are not used detectably as Fluc initiation codons in yeast (Kolitz et al., RNA, vol. 15, no. 1, pp. 138-152, 2009) and were thus not tested. […] Efficiency of use of near cognate codons as initiation sites was measured with the dual luciferase assay in several Sui^− mutant strains. Translation from each alternative start codon in the Sui^− strain was normalized to translation from that codon in a wild type strain. Sui^− mutations increase the use of near cognates up to 18-fold (GUG in eIF1 D83G strain). However, in each mutant strain, translation from AUU is increased the least. Although it is not understood why AUU behaves anomalously, it is interesting that NSC218351 mimics this aspect of the behavior of the Sui^− mutations in initiation factors.

[8] = system: Sui- strains with mutations in eIF1A, eIF2, and eIF5; test: Growth of Sui- strains with mutations in other initiation factors; format: cell-based, Saccharomyces cerevisiae
From the text: (§1) While small, the effects are reproducible. No effects on growth of Sui^− strains with mutations in other initiation factors (eIF1A, eIF2, and eIF5) have been detected.

[9] = system: Sui- mutant eIF1 D83G; test: Growth of Sui- mutant eIF1 D83G in His- culture (doubling time); format: cell-based, Saccharomyces cerevisiae; settings: His- culture with compound; decreased from 8 hrs
From the text: Doubling times were quantified for two experiments by plotting Log2(OD600) vs. time. The slope of the line between −2.5<Log2(OD600)<2 equals 1/doubling time.
as §1

[10] = analogs of NSC92218, 8 μM, ratio normalized to DMSO control
[11] = 50 mM on the paper strip, SC-His

COc1cc(N)c2ncccc2c1Cl [Cpd 19, 5-chloro-6-methoxyquinolin-8-amine]
AUG/AUG (counter screen effect) [1, 10]: 0.99 | UUG/AUG (primary screen effect) [2, 10]: 0.94

Nc1cc(I)c2cccnc2c1O [NSC92218, 7-amino-5-iodo-8-quinolinol hydrochloride]
growth of sui1-1 in column 1 on SC-His relative to the inhibitory effect on SC ([3]; 2.5 mM on the paper strip): growth enhancement occurred | growth of sui1-1 on SC-His in columns 2 and 3 ([3]; 10 mM on the paper strip): enhanced growth | growth of sui1-1 close to the compound source [3]: prevented growth | FlucAUG/RlucAUG ratio in the presence of compound [1]: did not change | increase of the FlucUUG/RlucAUG ratio [2]: 1.8 fold | minimal concentration required to achieve the 1.8-fold increase of the UUG/AUG ratio [2]: 15 µM | raw FlucUUG value [2]: did not change, or increases slightly | increase of expression of the in-frame PRE2 uORF-Fluc reporter [4]: ~2 fold | reduction of the compound's effect in the eIF1 over-expressing strain relative to wild type cells ([5]; 3.8 μM): ~50% | suppression of the compound's effect on UUG initiation by over-expression of eIF1 [5]: partially | concentration that does not affect growth of wild type yeast while the FlucUUG/RlucAUG ratio increases [6]: 2 µM

O=C(O)c1nccc2ccccc12 [NSC218351, isoquinoline-1-carboxylic acid]
initiation at AUU codons [7]: did not increase | growth of Sui- strains with mutations in other initiation factors (eIF1A, eIF2, and eIF5) [8]: No effects | growth of sui1-1 on SC-His in the column closest to the compound source ([3]; 12.5 mM on the paper strip, column 1): enhanced | growth of sui1-1 on selective media close to the drug source [3, 11]: inhibited | growth of sui1-1 on selective media farther from the source relative to DMSO [3, 11]: enhanced | growth of the eIF1 Sui- strains on His- plates ([3]; His- plates): enhances the growth | growth of sui1-1 close to the compound source [3]: slowed growth | doubling time of eIF1 D83G [9]: 7.35 h | FlucAUG/RlucAUG ratio in the presence of compound [1]: does not change | minimal concentration for the effect, NSC218351 relative to NSC92218 ([2]; 60 μM vs 15 μM, higher for NSC218351): 4 fold | minimal concentration required to achieve the 1.8-fold increase of the UUG/AUG ratio ([2]; BY4741): 60 µM | increase of the FlucUUG/RlucAUG ratio ([2]; BY4741, 4 hours with compound, reached at 60 μM NSC218351 / 15 μM NSC92218): 1.8 fold | raw FlucUUG value [2]: increased slightly | raw RlucAUG value ([2]; pFuugRaug plasmid, increasing concentration): decreased | increase of expression of the in-frame PRE2 uORF-Fluc reporter [4]: approximately 1.5 fold | suppression of the compound's effect on UUG initiation by over-expression of eIF1 [5]: completely suppressed | toxicity to yeast cells [6]: not toxic | concentration that does not affect growth of wild type yeast while the FlucUUG/RlucAUG ratio increases [6]: 50 µM | concentration at which growth was reduced ([6]; yeast): 300 µM | working concentrations at which toxicity is not a concern ([6]; yeast): 10 to 100 µM

C[C@@H]1C[C@@H]([C@H](O)CC2CC(=O)NC(=O)C2)C(=O)[C@@H](C)C1 [cycloheximide, reference compound]
FlucAUG/RlucAUG ratio in the presence of compound [1]: also altered | effect on FlucUUG/RlucAUG ratio ([2]; BY4741 grown under screening conditions): altered | raw luciferase values relative to control values ([2]; cells grown under screening conditions, four hours): ~25%
